This is an account of results in ChEMBL document CHEMBL1144186, “New iodoreboxetine analogues for SPECT imaging of the noradrenaline transporter” (Bioorg Med Chem Lett, 2008).

Test [1] is described as follows: Displacement of [3H]nisoxetine from rat brain NAT. It counts as tissue-based.
Test [2] concerns the target Sodium-dependent serotonin transporter (Rattus norvegicus, UniProt P31652). Kind of test: Displacement of [3H]citalopram from rat brain SERT.
In test [3] the target is Sodium-dependent dopamine transporter (Rattus norvegicus, UniProt P23977). Kind of test: Displacement of [3H]WIN-35428 from rat brain DAT. Format: tissue-based.
For test [4], the species on record is Rattus norvegicus. Put plainly: Selectivity for rat NAT over rat SERT.
The species named for test [5] is Rattus norvegicus. Put plainly: Selectivity for rat NAT over rat DAT.

Sodium-dependent serotonin transporter, sequence (P31652 whole entry): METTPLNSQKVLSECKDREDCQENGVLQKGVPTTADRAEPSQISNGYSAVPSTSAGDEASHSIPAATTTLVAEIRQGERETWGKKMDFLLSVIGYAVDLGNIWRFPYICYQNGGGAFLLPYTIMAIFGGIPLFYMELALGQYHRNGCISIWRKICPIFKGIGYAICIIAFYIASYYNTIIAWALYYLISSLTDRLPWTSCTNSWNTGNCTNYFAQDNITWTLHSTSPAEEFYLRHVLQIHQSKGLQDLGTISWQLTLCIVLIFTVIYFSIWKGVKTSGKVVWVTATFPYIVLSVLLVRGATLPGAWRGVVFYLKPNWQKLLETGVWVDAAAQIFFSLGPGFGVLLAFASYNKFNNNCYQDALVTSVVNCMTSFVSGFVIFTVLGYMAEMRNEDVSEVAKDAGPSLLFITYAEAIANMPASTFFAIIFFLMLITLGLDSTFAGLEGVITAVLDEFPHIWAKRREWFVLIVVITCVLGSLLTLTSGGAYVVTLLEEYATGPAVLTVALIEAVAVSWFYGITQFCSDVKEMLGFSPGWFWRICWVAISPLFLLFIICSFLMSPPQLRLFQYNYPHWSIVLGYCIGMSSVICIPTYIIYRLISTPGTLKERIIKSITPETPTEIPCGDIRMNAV
Sodium-dependent dopamine transporter, sequence (P23977 whole entry): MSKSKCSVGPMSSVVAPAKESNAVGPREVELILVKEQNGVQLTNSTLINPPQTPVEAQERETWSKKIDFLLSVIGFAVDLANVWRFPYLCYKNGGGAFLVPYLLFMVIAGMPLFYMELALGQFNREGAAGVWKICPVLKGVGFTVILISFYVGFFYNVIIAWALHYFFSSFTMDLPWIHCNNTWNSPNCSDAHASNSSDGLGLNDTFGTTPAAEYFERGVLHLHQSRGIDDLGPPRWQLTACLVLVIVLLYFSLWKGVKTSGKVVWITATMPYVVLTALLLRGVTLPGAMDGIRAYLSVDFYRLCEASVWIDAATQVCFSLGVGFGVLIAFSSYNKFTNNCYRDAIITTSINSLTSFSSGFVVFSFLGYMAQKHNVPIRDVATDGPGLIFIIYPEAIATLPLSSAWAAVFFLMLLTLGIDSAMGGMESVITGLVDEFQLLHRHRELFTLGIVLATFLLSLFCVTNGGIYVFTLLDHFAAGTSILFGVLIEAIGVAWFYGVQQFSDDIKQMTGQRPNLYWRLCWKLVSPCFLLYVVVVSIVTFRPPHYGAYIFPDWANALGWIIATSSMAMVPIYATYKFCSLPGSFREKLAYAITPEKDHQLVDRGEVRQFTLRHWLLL

Turning to `CCOc1ccccc1O[C@H](c1ccc(I)cc1)[C@H]1CNCCO1`, the Ki was 64 nM in test [1], 646 nM in test [2] and 716 nM in test [3].

On to `CCOc1ccccc1O[C@@H](c1ccc(I)cc1)[C@H]1CNCCO1`, for which, in test [1], the Ki came out at 58.2 nM.

As for `CCOc1ccccc1O[C@@H](c1ccc(I)cc1)[C@@H]1CNCCO1`, the values for the inhibitory constant (Ki) in test [1], in test [2] and in test [3] were 53.8 nM, 2790 nM and 1460 nM, respectively. The Ratio Ki in the test filed under Rattus norvegicus [4] was 50; in the test listed under Rattus norvegicus [5], 25.

In the case of `CCOc1ccccc1O[C@H](c1ccc(I)cc1)[C@@H]1CNCCO1`, the inhibition constant (Ki) in test [1] worked out at 321 nM.
